Reference: patent US20250171438A1 (Agios Pharmaceuticals, Inc., priority 2022, published 2025)

Molecular target: T1, human PAH with the R408W mutation (Homo sapiens, UniProt P00439, R408W)
T1 construct: expressed in transfected cells
T1 sequence (P00439 1-452 R408W): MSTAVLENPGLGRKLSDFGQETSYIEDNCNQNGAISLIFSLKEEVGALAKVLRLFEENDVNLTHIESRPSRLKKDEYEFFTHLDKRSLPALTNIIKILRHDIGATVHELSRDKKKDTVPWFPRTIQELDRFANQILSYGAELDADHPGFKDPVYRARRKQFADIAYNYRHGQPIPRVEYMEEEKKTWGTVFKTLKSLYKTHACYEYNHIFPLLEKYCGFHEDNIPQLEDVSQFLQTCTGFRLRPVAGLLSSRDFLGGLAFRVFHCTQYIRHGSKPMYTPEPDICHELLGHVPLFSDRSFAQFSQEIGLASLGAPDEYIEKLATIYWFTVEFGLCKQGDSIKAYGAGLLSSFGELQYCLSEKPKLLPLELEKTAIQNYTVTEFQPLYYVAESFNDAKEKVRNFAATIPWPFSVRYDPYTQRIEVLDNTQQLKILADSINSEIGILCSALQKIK
Assay: Cell Based Phenylalanine Flux Assay
Settings: A375 cells expressing human R408W PAH; 24 hrs compound incubation; 13C-Tyrosine by LC-MS; average where tested multiple times; read-out: AC50

| AC50 | Molecule |
| --- | --- |
| 1000 to 5000 nM | CC(C)(O)c1cc(C(=O)N2CCc3[nH]cnc3[C@@H]2c2nc3c(F)cccc3s2)on1 [Example 2169, (R)-(4-(4-fluorobenzo[d]thiazol-2-yl)-6,7-dihydro-1H-imidazo[4,5-c]pyridin-5(4H)-yl)(3-(2-hydroxypropan-2-yl)isoxazol-5-yl)methanone] |
| 1000 to 5000 nM | CC(C)(O)c1cc(C(=O)N2CCc3[nH]cnc3[C@H]2c2nc3c(F)cccc3s2)on1 [Example 2170, (S)-(4-(4-fluorobenzo[d]thiazol-2-yl)-6,7-dihydro-1H-imidazo[4,5-c]pyridin-5(4H)-yl)(3-(2-hydroxypropan-2-yl)isoxazol-5-yl)methanone] |
| 1000 to 5000 nM | Cn1nc(C(F)F)nc1C(=O)N1CCc2[nH]cnc2[C@H]1c1nc2ccccc2s1 [Example 2171] |
| > 5000 nM | Cn1nc(C(F)F)nc1C(=O)N1CCc2[nH]cnc2[C@@H]1c1nc2ccccc2s1 [Example 2172, (R)-(4-(benzo[d]thiazol-2-yl)-6,7-dihydro-1H-imidazo[4,5-c]pyridin-5(4H)-yl)(3-(difluoromethyl)-1-methyl-1H-1,2,4-triazol-5-yl)methanone] |
| 500 to 1000 nM | Cc1ccc2sc([C@@H]3c4nc[nH]c4CCN3C(=O)c3cnco3)nc2c1 [Example 2173, (S)-(4-(5-methylbenzo[d]thiazol-2-yl)-6,7-dihydro-1H-imidazo[4,5-c]pyridin-5(4H)-yl)(oxazol-5-yl)methanone] |
| > 5000 nM | Cc1ccc2sc([C@H]3c4nc[nH]c4CCN3C(=O)c3cnco3)nc2c1 [Example 2174, (R)-(4-(5-methylbenzo[d]thiazol-2-yl)-6,7-dihydro-1H-imidazo[4,5-c]pyridin-5(4H)-yl)(oxazol-5-yl)methanone] |
| 500 to 1000 nM | Cc1ccc2nc([C@@H]3c4nc[nH]c4CCN3C(=O)c3cnco3)sc2c1 [Example 2175, (S)-(4-(6-methylbenzo[d]thiazol-2-yl)-6,7-dihydro-1H-imidazo[4,5-c]pyridin-5(4H)-yl)(oxazol-5-yl)methanone] |
| 500 to 1000 nM | O=C(c1ocnc1-c1ccccc1)N1CCc2[nH]cnc2[C@H]1c1nc2c(F)cccc2s1 [Example 2177, (S)-(4-(4-fluorobenzo[d]thiazol-2-yl)-6,7-dihydro-1H-imidazo[4,5-c]pyridin-5(4H)-yl)(4-phenyloxazol-5-yl)methanone] |
| > 5000 nM | O=C(c1ocnc1-c1ccccc1)N1CCc2[nH]cnc2[C@@H]1c1nc2c(F)cccc2s1 [Example 2178, (R)-(4-(4-fluorobenzo[d]thiazol-2-yl)-6,7-dihydro-1H-imidazo[4,5-c]pyridin-5(4H)-yl)(4-phenyloxazol-5-yl)methanone] |
| < 500 nM | Cc1cccc2nc([C@@H]3c4nc[nH]c4CCN3C(=O)c3cnco3)sc12 [Example 2179, (S)-(4-(7-methylbenzo[d]thiazol-2-yl)-6,7-dihydro-1H-imidazo[4,5-c]pyridin-5(4H)-yl)(oxazol-5-yl)methanone] |
| > 5000 nM | Cc1cccc2nc([C@H]3c4nc[nH]c4CCN3C(=O)c3cnco3)sc12 [Example 2180, (R)-(4-(7-methylbenzo[d]thiazol-2-yl)-6,7-dihydro-1H-imidazo[4,5-c]pyridin-5(4H)-yl)(oxazol-5-yl)methanone] |
| < 500 nM | CC(C)(C)c1ncoc1C(=O)N1CCc2[nH]cnc2[C@H]1c1nc2c(F)cccc2s1 [Example 2181] |
| 1000 to 5000 nM | CC(C)(C)c1ncoc1C(=O)N1CCc2[nH]cnc2[C@@H]1c1nc2c(F)cccc2s1 [Example 2182, (R)-(4-(tert-butyl)oxazol-5-yl)(4-(4-fluorobenzo[d]thiazol-2-yl)-6,7-dihydro-1H-imidazo[4,5-c]pyridin-5(4H)-yl)methanone] |
| < 500 nM | O=C(c1oc(C2CC2)nc1C(F)(F)F)N1CCc2[nH]cnc2[C@H]1c1nc2c(F)cccc2s1 [Example 2183, (S)-(2-cyclopropyl-4-(trifluoromethyl)oxazol-5-yl)(4-(4-fluorobenzo[d]thiazol-2-yl)-1,4,6,7-tetrahydro-5H-imidazo[4,5-c]pyridin-5-yl)methanone] |
| < 500 nM | O=C(c1oc(C2CC2)nc1C(F)(F)F)N1CCc2[nH]cnc2[C@@H]1c1nc2c(F)cccc2s1 [Example 2184, (R)-(2-cyclopropyl-4-(trifluoromethyl)oxazol-5-yl)(4-(4-fluorobenzo[d]thiazol-2-yl)-1,4,6,7-tetrahydro-5H-imidazo[4,5-c]pyridin-5-yl)methanone] |
| < 500 nM | O=C(c1oc(C2(O)CC2)nc1C(F)(F)F)N1CCc2[nH]cnc2[C@H]1c1nc2c(F)cccc2s1 [Example 2185, (S)-(4-(4-fluorobenzo[d]thiazol-2-yl)-1,4,6,7-tetrahydro-5H-imidazo[4,5-c]pyridin-5-yl)(2-(1-hydroxycyclopropyl)-4-(trifluoromethyl)oxazol-5-yl)methanone] |
| 1000 to 5000 nM | O=C(c1oc(C2(O)CC2)nc1C(F)(F)F)N1CCc2[nH]cnc2[C@@H]1c1nc2c(F)cccc2s1 [Example 2186, (R)-(4-(4-fluorobenzo[d]thiazol-2-yl)-1,4,6,7-tetrahydro-5H-imidazo[4,5-c]pyridin-5-yl)(2-(1-hydroxycyclopropyl)-4-(trifluoromethyl)oxazol-5-yl)methanone] |
| 1000 to 5000 nM | ((4R)-4-(benzo[d]thiazol-2-yl)-3a,4,6,7,8,8a-hexahydroimidazo[4,5-c]azepin-5(1H)-yl)(4-cyclopropyloxazol-5-yl)methanone [Example 2168] |
| 1000 to 5000 nM | ((4R,7R)-4-(benzo[d]thiazol-2-yl)-7-methyl-6,7-dihydro-1H-imidazo[4,5- [Example 1587] |
| 1000 to 5000 nM | (R)-2-((4-(6-bromo-1H-benzo[d]imidazol-2-yl)-6,7-dihydro-1H-imidazo[4,5-c]pyridin-5(4H)-yl)methyl)thiazole [Example 968] |
| > 5000 nM | (R)-2-((4-(6-fluoro-1H-benzo[d]imidazol-2-yl)-6,7-dihydro-1H-imidazo[4,5-c]pyridin-5(4H)-yl)methyl)thiazole [Example 972] |
| 1000 to 5000 nM | (R)-(4-(benzo[d]thiazol-2-yl)-6,7-dihydro-1H-imidazo[4,5-c]pyridin-5(4H)-yl)(2-(1-methyl-3-(trifluoromethyl)-1H-pyrazol-4-yl)thiazol-5-yl)methanone [Example 1390] |
| 1000 to 5000 nM | (R)-(5-(difluoromethyl)-1-methyl-1H-pyrazol-4-yl)(4-(4-fluorobenzo[d]thiazol-2-yl)-6,7-dihydro-1H-imidazo[4,5-c]pyridin-5(4H)-yl)methanone [Example 1744] |

| Molecule | AC50 |
| --- | --- |
| (R)-(4-(benzo[d]thiazol-2-yl)-6,7-dihydro-1H-imidazo[4,5-c]pyridin-5(4H)-yl)(6-bromopyrazolo[1,5-a]pyridin-3-yl)methanone [Example 1046] | 1000 to 5000 nM |
| (R)-(4-bromothiazol-5-yl)(4-(4-fluorobenzo[d]thiazol-2-yl)-6,7-dihydro-1H-imidazo[4,5-c]pyridin-5(4H)-yl)methanone [Example 1618] | 500 to 1000 nM |
| (R,Z)-1-(4-(1H-benzo[d]imidazol-2-yl)-6,7-dihydro-1H-imidazo[4,5-c]pyridin-5(4H)-yl)-2-(5-(prop-1-en-1-yl)-4-vinylthiazol-2-yl)ethanone [Example 904] | > 5000 nM |
| (S)-(4-(benzo[d]thiazol-2-yl)-6,7-dihydro-1H)-imidazo[4,5-c]pyridin-5(4H)-yl)(6-bromopyrazolo[1,5-a]pyridin-3-yl)methanone [Example 1045] | 500 to 1000 nM |
| (S)-(4-bromothiazol-5-yl)(4-(4- fluorobenzo[d]thiazol-2-yl)-6,7-dihydro-1H)- imidazo[4,5-c]pyridin-5(4H)-yl)methanone [Example 1617] | < 500 nM |
